Holding throughout (assay): growth of human tumour cells (NCI), 48 h
The subject of assay [1] is BT-549 breast.
The subject of assay [2] is DLD-1 colon.
The subject of assay [3] is HS 578T breast.
Assay [4] concerns KM20L2 colon.
The test system of assay [5] is M19-MEL melanoma.
Assay [6] relates to MCF7 breast.
The subject of assay [7] is MDA-MB-435.
Assay [8] deals with NCI/ADR-RES ovarian.
Assay [9] concerns SNB-78 CNS.
Assay [10] relates to T-47D breast.

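Assay format: 96-well plates, 48-hour exposure. Definition used: TGI = concentration required for complete inhibition of growth.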

Take `Cc1c(N)nc(C2CC(=O)N2CC(N)C(N)=O)nc1C(=O)NC(C(=O)NC(C)C(O)C(C)C(=O)NC(C(=O)NCCc1nc(-c2nc(C(=O)NCCNCC(C)O)cs2)cs1)C(C)O)C(OC1OC(CO)C(O)C(O)C1OC1OC(CO)C(O)C(OC(N)=O)C1O)c1cnc[nH]1` (stereo unspecified): the TGI was more than 50 µM in assay [1]; more than 100 µM in [2]; 50 µM in assay [3]; more than 100 µM in assay [4]; more than 57.6 µM in assay [5]; 50 µM in assay [6]. For the same compound, the TGI in [7] was 36.4 µM; in [8], 50 µM; in [9], more than 100 µM; in [10], more than 5 µM.

Take `CCCCCCCCCCCCCCCC(=O)NCC(OCC)OCC`: the TGI in [2], in [4], in assay [5] and in assay [9] was more than 100 µM throughout.

Take `CCNC(=O)O/N=C1/C=C2CC[C@@H]3C(CC[C@@]4(C)C3CC[C@@H]4OC(=O)NCC)[C@@]2(C)CC1` (stereo partly specified): the TGI in assay [2] is more than 100 µM; in assay [4], 5.15 µM; in [5], 10.3 µM; in assay [9], 9.3 µM.

Regarding `Cc1[nH]n(C(=O)c2ccc(Cl)cc2)c(=O)c1/C=C1\C(O)=CC(=O)c2ccccc21`, the TGI in [2], in assay [4], in assay [5] and in assay [9] was more than 100 µM in each case.

Turning to `Cc1nc(-c2cccnc2)sc1C(=O)/C=C/c1ccc(Cl)cc1Cl`, the TGI in [2], in assay [4], in assay [5] and in assay [9] was more than 100 µM each time.

As to `Nc1nc(N)c(-c2ccccc2)c(C(=O)Nc2nccs2)n1`, the TGI in assay [2], in assay [4], in [5] and in [9] was more than 100 µM in each case.

In the case of `CCCCc1c2c(nc3c1CC/C(=C\c1ccccc1)C3=O)CCCC2`, the TGI in [2] was determined as 12.7 µM; in assay [4], 12.7 µM; in assay [5], 16.9 µM; in [9], 9.38 µM.

Regarding `O=C(O)C12C3C4C1C1C2C3C41I` (stereo unspecified), the TGI in assay [2], in assay [4], in assay [5] and in [9] was more than 100 µM each time.

With `COC(=O)C1=C(C)N(NC(=O)Nc2ccccc2)C2(N)N(NC(=O)Nc3ccccc3)C(C)=C(C(=O)OC)C12C(=O)OC` (stereo unspecified), the TGI was more than 100 µM in assay [2], more than 100 µM in assay [4], 78.7 µM in assay [5] and 84.6 µM in assay [9].

For `Cn1ncc2c(c1=O)Nc1ccccc1S2(=O)=O`, the TGI in assay [2], in assay [4], in assay [5] and in assay [9] was more than 100 µM each time.

Values taken from PubChem BioAssay (NCI).
